Measurements reported in patent publication US12486267B2, “Imidazo[1,2-A]pyridine and [1,2,4]triazolo[1,5-A]pyridine derivatives as TLR9 inhibitors for the treatment of fibrosis” (BRISTOL-MYERS SQUIBB COMPANY, priority 2020, dated 2025).
pIC50: −log10 of the molar value.

Experiments:
Assay type in all cases: cell-based
[1] = target: T1, human TLR9 (Homo sapiens, UniProt Q9NR96); assay: TLR9 inhibition reporter assay (HEK-Blue cells, SEAP reporter); conditions: HEK-Blue cells overexpressing human TLR9; stimulated with ODN2006 5 nM; 22 hour incubation; SEAP readout
T1 sequence (Q9NR96 26-1032): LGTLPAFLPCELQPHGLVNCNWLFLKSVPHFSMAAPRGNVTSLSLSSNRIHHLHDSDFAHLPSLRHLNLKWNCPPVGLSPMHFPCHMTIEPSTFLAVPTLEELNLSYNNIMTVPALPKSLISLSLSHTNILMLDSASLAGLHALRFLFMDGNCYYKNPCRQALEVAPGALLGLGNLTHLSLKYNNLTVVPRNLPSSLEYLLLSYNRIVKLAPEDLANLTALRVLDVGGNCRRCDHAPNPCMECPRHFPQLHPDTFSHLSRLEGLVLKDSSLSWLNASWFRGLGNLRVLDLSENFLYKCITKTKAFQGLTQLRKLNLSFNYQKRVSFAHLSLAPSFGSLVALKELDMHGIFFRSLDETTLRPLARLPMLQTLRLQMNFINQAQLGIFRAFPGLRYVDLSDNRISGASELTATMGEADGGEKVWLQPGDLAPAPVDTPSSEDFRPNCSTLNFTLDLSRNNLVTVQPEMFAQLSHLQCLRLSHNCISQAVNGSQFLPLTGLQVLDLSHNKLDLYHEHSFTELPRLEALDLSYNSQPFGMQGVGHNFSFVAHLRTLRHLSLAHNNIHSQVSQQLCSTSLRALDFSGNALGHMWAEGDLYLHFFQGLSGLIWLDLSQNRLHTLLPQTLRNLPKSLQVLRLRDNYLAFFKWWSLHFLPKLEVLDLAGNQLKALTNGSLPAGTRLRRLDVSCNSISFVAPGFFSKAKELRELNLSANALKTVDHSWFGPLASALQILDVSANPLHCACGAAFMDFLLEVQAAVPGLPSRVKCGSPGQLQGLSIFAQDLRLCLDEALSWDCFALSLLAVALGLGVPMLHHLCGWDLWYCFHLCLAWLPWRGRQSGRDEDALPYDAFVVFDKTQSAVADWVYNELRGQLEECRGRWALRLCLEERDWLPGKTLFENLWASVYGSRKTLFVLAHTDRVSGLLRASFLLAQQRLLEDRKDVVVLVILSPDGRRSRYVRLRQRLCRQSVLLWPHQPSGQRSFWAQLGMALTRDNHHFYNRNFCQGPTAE
In short: (§1)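 HEK-Blue cells with NF-κB/AP-1-driven SEAP pre-treated 30 min with compound (0.05 nM–50 μM), then stimulated with gardiquimod 7.5 μM (TLR7), R848 15.9 μM (TLR8) or ODN2006 5 nM (TLR9). SEAP detected after 22 h at 37 °C; percent inhibition relative to agonist-plus-DMSO and known-inhibitor wells.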

[2] = target: T2, human TLR7 (Homo sapiens, UniProt Q9NYK1); assay: TLR7 inhibition reporter assay (HEK-Blue cells, SEAP reporter); conditions: HEK-Blue cells overexpressing human TLR7; stimulated with gardiquimod 7.5 μM; 22 hour incubation; SEAP readout
T2 sequence (Q9NYK1 27-1049): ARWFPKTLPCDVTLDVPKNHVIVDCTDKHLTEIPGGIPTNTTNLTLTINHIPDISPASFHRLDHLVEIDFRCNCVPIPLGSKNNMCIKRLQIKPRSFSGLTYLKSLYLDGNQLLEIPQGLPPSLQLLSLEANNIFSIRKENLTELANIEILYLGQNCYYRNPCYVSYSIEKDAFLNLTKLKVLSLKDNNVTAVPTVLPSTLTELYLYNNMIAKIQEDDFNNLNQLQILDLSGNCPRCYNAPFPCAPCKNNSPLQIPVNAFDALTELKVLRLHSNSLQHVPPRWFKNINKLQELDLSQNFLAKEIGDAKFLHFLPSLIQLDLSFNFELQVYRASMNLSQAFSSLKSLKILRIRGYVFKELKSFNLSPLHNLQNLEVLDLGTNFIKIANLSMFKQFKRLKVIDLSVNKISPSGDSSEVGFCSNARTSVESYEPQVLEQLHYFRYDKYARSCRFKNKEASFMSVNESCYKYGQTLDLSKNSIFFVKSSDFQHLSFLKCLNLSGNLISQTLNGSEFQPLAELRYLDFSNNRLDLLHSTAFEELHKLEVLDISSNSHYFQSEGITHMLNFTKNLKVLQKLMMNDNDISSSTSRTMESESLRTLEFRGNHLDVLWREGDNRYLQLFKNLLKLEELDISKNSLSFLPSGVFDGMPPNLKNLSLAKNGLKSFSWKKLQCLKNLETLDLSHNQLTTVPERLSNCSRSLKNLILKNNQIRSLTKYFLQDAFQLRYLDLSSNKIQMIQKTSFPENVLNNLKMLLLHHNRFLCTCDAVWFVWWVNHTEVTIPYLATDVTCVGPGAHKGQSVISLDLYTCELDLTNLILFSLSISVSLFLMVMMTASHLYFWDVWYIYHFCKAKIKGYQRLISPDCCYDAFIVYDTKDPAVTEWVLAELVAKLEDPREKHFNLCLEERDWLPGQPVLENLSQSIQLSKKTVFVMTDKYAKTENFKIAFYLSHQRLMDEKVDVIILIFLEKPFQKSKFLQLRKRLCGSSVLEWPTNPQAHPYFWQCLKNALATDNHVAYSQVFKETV
In short: as §1

[3] = target: T3, human TLR8 (Homo sapiens, UniProt Q9NR97); assay: TLR8 inhibition reporter assay (HEK-Blue cells, SEAP reporter); conditions: HEK-Blue cells overexpressing human TLR8; stimulated with R848 15.9 μM; 22 hour incubation; SEAP readout
T3 sequence (Q9NR97 27-1041): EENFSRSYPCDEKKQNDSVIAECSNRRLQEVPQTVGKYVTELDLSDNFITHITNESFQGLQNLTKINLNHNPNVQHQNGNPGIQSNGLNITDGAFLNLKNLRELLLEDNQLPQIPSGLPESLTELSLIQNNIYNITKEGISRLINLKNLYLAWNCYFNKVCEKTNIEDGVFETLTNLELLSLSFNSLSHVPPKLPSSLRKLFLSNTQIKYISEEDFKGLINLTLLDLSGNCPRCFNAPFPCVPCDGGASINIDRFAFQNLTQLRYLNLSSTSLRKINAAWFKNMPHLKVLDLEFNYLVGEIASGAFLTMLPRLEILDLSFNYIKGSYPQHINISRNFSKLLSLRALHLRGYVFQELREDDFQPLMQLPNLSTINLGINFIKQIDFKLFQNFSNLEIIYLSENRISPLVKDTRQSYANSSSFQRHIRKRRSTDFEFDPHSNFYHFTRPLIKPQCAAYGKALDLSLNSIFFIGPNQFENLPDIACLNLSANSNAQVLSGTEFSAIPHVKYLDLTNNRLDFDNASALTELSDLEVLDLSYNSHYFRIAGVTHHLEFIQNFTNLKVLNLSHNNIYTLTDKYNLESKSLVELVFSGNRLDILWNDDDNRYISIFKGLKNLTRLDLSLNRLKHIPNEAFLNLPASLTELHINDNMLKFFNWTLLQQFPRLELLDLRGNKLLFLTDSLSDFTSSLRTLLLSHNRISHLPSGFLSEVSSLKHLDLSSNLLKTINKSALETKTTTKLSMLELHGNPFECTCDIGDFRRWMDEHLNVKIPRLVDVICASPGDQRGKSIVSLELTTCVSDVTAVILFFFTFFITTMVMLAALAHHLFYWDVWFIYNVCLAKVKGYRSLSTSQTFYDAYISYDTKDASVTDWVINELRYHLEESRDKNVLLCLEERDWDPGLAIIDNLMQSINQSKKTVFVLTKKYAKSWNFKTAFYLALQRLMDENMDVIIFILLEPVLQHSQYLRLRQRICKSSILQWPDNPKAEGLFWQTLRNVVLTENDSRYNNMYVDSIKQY
Description: TLR7/8/9 Inhibition Reporter Assays
HEK-Blue™-cells (Invivogen) overexpressing human TLR7, TLR8 or TLR9 receptors were used for screening inhibitors of these receptors using an inducible SEAP (secreted embryonic alkaline phosphatase) reporter gene under the control of the […] minimal promoter fused to five NF-κB and AP-1-binding sites. Briefly, cells are seeded into Greiner 384 well plates (15000 cells per well for TLR7, 20,000 for TLR8 and 25,000 for TLR9) and then treated with test compounds in DMSO to yield a final dose response concentration range of 0.05 nM-50 μM. After a 30 minute compound pre-treatment at room temperature, the cells are then stimulated with a TLR7 ligand (gardiquimod at a final concentration of 7.5 μM), TLR8 ligand (R848 at a final concentration of 15.9 μM) or TLR9 ligand (ODN2006 at a final concentration of 5 nM) to activate NF-κB and AP-1 which induce the production of SEAP. After a 22 hour incubation at 37° C., 5% CO2, SEAP levels are determined with the addition of HEK-Blue™ Detection reagent (Invivogen), a cell culture medium that allows for detection of SEAP, according to manufacturer's specifications. The percent inhibition is determined as the % reduction in the HEK-Blue signal present in wells treated with agonist plus DMSO alone compared to wells treated with a known inhibitor.

| pIC50 [1] | pIC50 [2] | pIC50 [3] | Structure (SMILES) |
| --- | --- | --- | --- |
| 6.57 | 4.52 | < 4.30 | COc1ccc(-c2cn3c(n2)CCC(C2CCN(C4CC5(C4)CN(C(C)C)C5)CC2)C3)cc1OC (single isomer, unassigned) [Example 46, 2-(3,4-dimethoxyphenyl)-6-(1-(2-isopropyl-2-azaspiro[3.3]heptan-6-yl)piperidin-4-yl)-5,6,7,8-tetrahydroimidazo[1,2-a]pyridine] |
| 7.66 | 5.59 | < 4.30 | COc1ccc(-c2cn3c(n2)CCC(C2CCN(C4CC5(C4)CN(CC(C)C)C5)CC2)C3)cc1OC (single isomer, unassigned) [Example 53, 2-(3,4-dimethoxyphenyl)-6-(1-(2-isobutyl-2-azaspiro[3.3]heptan-6-yl)piperidin-4-yl)-5,6,7,8-tetrahydroimidazo[1,2-a]pyridine] |
| 7.59 | 5.34 | < 4.30 | COc1ccc(-c2cn3c(n2)CCC(C2CCN(C4CCN(CC(C)C)CC4)CC2)C3)cc1OC (racemic) [Example 31, 2-(3,4-dimethoxyphenyl)-6-(1′-isobutyl-[1,4′-bipiperidin]-4-yl)-5,6,7,8-tetrahydroimidazo[1,2-a]pyridine] |
| 6.78 | 5.52 | < 4.30 | COc1ccc(-c2cn3cc(C4CCN(C5CCN(C(C)C)CC5)CC4)cc(C)c3n2)cc1F [Example 5, 2-(3-fluoro-4-methoxyphenyl)-6-(1′-isopropyl-[1,4′-bipiperidin]-4-yl)-8-methylimidazo[1,2-a]pyridine] |
| 6.85 | 4.37 | < 4.30 | COc1ccc(-c2cn3c(n2)CCC(C2CCN(C4CCN(C(=O)C(C)C)CC4)CC2)C3)cc1OC (racemic) [Example 39, 1-(4-(2-(3,4-dimethoxyphenyl)-5,6,7,8-tetrahydroimidazo[1,2-a]pyridin-6-yl)-[1,4′-bipiperidin]-1′-yl)-2-methylpropan-1-one] |
| 7.00 | 4.96 | < 4.30 | CC(C)CN1CCC(N2CCC(c3cc(F)c4nc(-c5ccc(S(C)(=O)=O)cc5)cn4c3)CC2)CC1 [Example 107, 8-fluoro-6-(1′-isobutyl-[1,4′-bipiperidin]-4-yl)-2-(4-(methylsulfonyl)phenyl) imidazo[1,2-a]pyridine] |
| 6.60 | 4.80 | < 4.30 | COc1ccc(-c2cn3cc(C4CCN(C5CCN(CC(C)C)CC5)CC4)cc(C)c3n2)cc1F [Example 6, 2-(3-fluoro-4-methoxyphenyl)-6-(1′-isobutyl-[1,4′-bipiperidin]-4-yl)-8-methylimidazo[1,2-a]pyridine] |
| 7.70 | < 4.30 | < 4.30 | CS(=O)(=O)c1ccc(-c2cn3cc(C4CCN(C5CCCN(C6CCOCC6)CC5)CC4)cc(F)c3n2)cc1 (single isomer, unassigned) [Example 129, 8-fluoro-2-(4-(methylsulfonyl)phenyl)-6-(1-(1-(tetrahydro-2H-pyran-4-yl)azepan-4-yl)piperidin-4-yl)imidazo[1,2-a]pyridine] |
| 7.33 | < 4.30 | < 4.30 | COc1ccc(-c2cn3c(n2)CCC(C2CCN(C4CC5(C4)CN(C(C)C)C5)CC2)C3)cc1OC (single isomer, unassigned) [Example 47, 2-(3,4-dimethoxyphenyl)-6-(1-(2-isopropyl-2-azaspiro[3.3]heptan-6-yl)piperidin-4-yl)-5,6,7,8-tetrahydroimidazo[1,2-a]pyridine] |

| Structure (SMILES) | pIC50 [1] | pIC50 [2] | pIC50 [3] |
| --- | --- | --- | --- |
| COc1ccc(-c2cn3cc(C4C[C@H]5CC[C@@H](C4)N5C4CCN(CC(C)C)CC4)cc(C)c3n2)cc1OC (mixture of isomers) [Example 27, 2-(3,4-dimethoxyphenyl)-6-(8-(1-isobutylpiperidin-4-yl)-8-azabicyclo[3.2.1]octan-3-yl)-8-methylimidazo[1,2-a]pyridine] | 7.77 | 5.85 | < 4.30 |
